Paper PMC3848067 (Acta Naturae, 2013)
Where two headings read alike, the source gives them in different places.

Key:
MT-4 cells = settings: MT-4 cell line; cited from earlier work
[1] = extrapolated for single-dose oral administration of 600 mg of phosphonate 2
[2] = dogs, cited from earlier work; for AUC / Cmax / Cmax/AUC / MRT / t1/2 / tmax: value for the tested compound (2 or its metabolite AZT)
[3] = dogs, 50 mg (2–5 mg/kg), cited from earlier work
[4] = rabbits, single oral dose of 7, 70 and 200 mg/kg; cited from earlier work
[5] = rats, oral, 20 mg/kg; cited from earlier work
mice [6] = settings: cited from earlier work
rats [7] = settings: cited from earlier work
Salmonella typhimurium = settings: concentrations of up to 1 mg/dish; cited from earlier work
mouse embryonic cells = settings: doses 50-fold higher than maximum recommended therapeutic dose for humans; cited from earlier work
HIV-1 = settings: cited from earlier work
[8] = cited from earlier work
[9] = canine whole blood at 37°С; cited from earlier work
cultured cells = settings: cited from earlier work
[10] = rabbits; cited from earlier work
[11] = rats, intraperitoneal, 20 mg/kg; parameters of phosphonate 2; cited from earlier work
[12] = rabbits, oral course, 1 g in 4–5 ml of water, after 6 and 18 h during 5 days; cited from earlier work
[13] = single oral dose of phosphonate 2, 200 mg/kg; cited from earlier work
rats [14] = settings: intragastric, 133 and 266 mg/kg daily for 3 months; cited from earlier work
dogs = settings: intragastric, 166 mg/kg daily for 4 weeks; cited from earlier work
[15] = system: bone marrow cells of hybrid mice F1(CBAxC57Bl6); settings: doses 50-fold higher than maximum recommended therapeutic dose for humans; cited from earlier work
rats [16] = settings: Wistar rats, intragastric 133 mg/kg daily, 10 weeks males and 2 weeks females; cited from earlier work
pregnant female rats = settings: intragastric 133 mg/kg daily on days 1–19 of gestation; cited from earlier work
guinea pigs [17] = settings: sensibilizing doses 133 and 266 mg/kg, provoking dose 266 mg/kg on days 14 and 21; cited from earlier work
guinea pigs [18] = settings: doses and sensibilization schemes tested; cited from earlier work
mice [19] = settings: cited from earlier work; remark: listed apart in the source
mice [20] = settings: cited from earlier work; remark: listed apart in the source
[21] = pharmacokinetics after single-dose oral administration to dogs; settings: comparison from Table 2
[22] = single oral dose of capsules of 2, 10 mg/kg
[23] = single oral dose of capsules of 2, 20 mg/kg
[24] = single oral dose of capsules of 2, 40 mg/kg

Cc1cn([C@H]2C[C@H](N=[N+]=[N-])[C@@H](COP(=O)(O)C(N)=O)O2)c(=O)[nH]c1=O [Compound 2, AZT 5’-aminocarbonyl phosphonate]
toxicity, times lower than that of AZT (MT-4 cells): 34–50 times | toxicity, times lower than that of phosphazide (MT-4 cells): 12.5–15 times | expected AZT concentration in human blood plasma [1]: 100 to 115 ng/mL | bioavailability of 5’-aminocarbonyl phosphonate 2 ([2]; administered orally at specified doses): 4.7% | bioavailability of AZT after 2 had been administered orally ([2]; oral): 8% | AUC [2, 22]: 470 ± 150 ng·h/mL | Cmax [2, 22]: 310 ± 90 ng/mL | Cmax/AUC [2, 22]: 0.662 ± 0.066 h⁻¹ | MRT [2, 22]: 2.43 ± 0.04 h | t1/2 [2, 22]: 0.62 ± 0.1 h | tmax [2, 22]: 1.5 ± 0.25 h | AUC [2, 23]: 980 ± 440 ng·h/mL | Cmax [2, 23]: 510 ± 180 ng/mL | Cmax/AUC [2, 23]: 0.561 ± 0.122 h⁻¹ | MRT [2, 23]: 2.65 ± 0.16 h | t1/2 [2, 23]: 0.81 ± 0.2 h | tmax [2, 23]: 1.6 ± 0.2 h | AUC [2, 24]: 1250 ± 860 ng·h/mL | Cmax [2, 24]: 510 ± 260 ng/mL | Cmax/AUC [2, 24]: 0.478 ± 0.117 h⁻¹ | MRT [2, 24]: 2.87 ± 0.49 h | t1/2 [2, 24]: 0.59 ± 0.2 h | tmax [2, 24]: 1.75 ± 0.27 h | tmax of AZT ([2]; single oral dose of the named compound equivalent to 20 mg of AZT/kg): 4 h | AZT in blood plasma after intravenous administration [3]: No AZT has been detected | AUC t ([3]; intravenous, parameters of 2): 2190 ng·h/mL | CL ([3]; intravenous, parameters of 2): 16.8 L/h | MRT ([3]; intravenous, parameters of 2): 0.74 h | Vss ([3]; intravenous, parameters of 2): 12.4 L | t1/2 ([3]; intravenous, parameters of 2): 0.35 h | presence of AZT in blood [4]: AZT is present in the blood in all the cases | original phosphonate 2 in blood plasma [5]: No original phosphonate 2 was detected | mean lethal dose (LD50) (mice [6]; intraperitoneal administration to mice): ≥ 5000 mg/kg | signs after single-dose administration at toxic doses (mice [6]; mice, 2000–50000 mg/kg): short-term agitation in animals replaced by distress, inertness and adynamia | signs after single-dose administration at toxic doses (rats [7]; rats, 2000–50000 mg/kg): short-term agitation in animals replaced by distress, inertness and adynamia | LD50 (rats [7]; single-dose intragastric administration to rats): higher than 40 g/kg | number of revertants in the Ames test (Salmonella typhimurium): does not increase the number of revertants | dominant lethal mutations in mouse embryonic cells (mouse embryonic cells): nor affected the number of dominant lethal mutations | antiviral activity (inhibition of viral replication) relative to AZT (HIV-1; HIV-infected MT-4 cells): inferior to that of AZT by about an order of magnitude | antiviral activity, times lower than that of phosphazide (HIV-1; MT-4 cell line): 3–4.5 times | selectivity index compared to AZT and phosphazide (HIV-1; MT-4 cell line): higher | half-life in 100% human blood serum [8]: over 6 h | Т1/2 in canine whole blood [9]: > 24 h | efficiency of penetration into cells, times lower than that of AZT (cultured cells): 10–100 times | efficiency of penetration into cells, times lower than that of phosphazide (cultured cells): approximately 6 times | AZT in peripheral blood after intravenous administration [10]: AZT has not been detected | AUC0–t [11]: 8020 ng·h/mL | MRT [11]: 0.82 h | Vss [11]: 0.37 L | t1/2 [11]: 0.42 h | СL [11]: 0.45 L/h | accumulation in blood [12]: gradual accumulation | original substance in daily urine and feces [13]: could not be detected | tolerability, chronic administration (rats [14]): well-tolerated by animals | tolerability, capsules (dogs): well-tolerated by the animals | chromosomal aberrations in mouse bone marrow cells [15]: neither caused an increase in the number of chromosomal aberrations | effect on animal reproduction function (rats [16]): no effects | embryotoxic and teratogenic effects (pregnant female rats): neither embryotoxic nor teratogenic effects | anaphylactic shock (guinea pigs [17]): no anaphylactic shock | allergic effect in type III hypersensitivity reaction (guinea pigs [18]): no allergic effect | popliteal lymph node reaction (mice [19]): not to affect the popliteal lymph node reaction | primary immune response (mice [20]; F1(CBAxC57BI6) mice, 332 mg/kg): reduced the primary immune response to a certain extent | hypersensitivity of the decelerated type reaction (mice [20]; mice, 166 and 332 mg/kg): nor the hypersensitivity of the decelerated type reaction | number of nuclear cells in spleen (mice [20]; mice, 166 and 332 mg/kg): affects neither the number of nuclear cells in spleen | Cmax of AZT, times lower than for phosphazide [21]: 2.5 times
